Where a chain is given by its changes, count along the chain named. “Also recorded” adds a separate entry of the source. Where a SMILES comes first, the peptide text is derived from it. The star is where a group is joined. X1 = CN(C)c1ccc2c(-c3ccc(C(=O)*)cc3C(=O)[O-])c3ccc(=[N+](C)C)cc-3oc2c1
What was measured:
NHERF1 PDZ1 (1–140) = biological target: T1, NHERF1 PDZ1 (1–140) (Homo sapiens, UniProt O14745); experiment: FP saturation binding, PDZ1 (1–140); details: acidic pH (5.5, 6.0) compared to pH 7.4
T1 construct: The expression plasmids pET16-N1P1 encoding PDZ1 (1–140); inferred from pET16 vector and Ni-NTA purification; made in house; host or cells: E. coli BL21 (DE3)
T1 sequence (O14745 1-140): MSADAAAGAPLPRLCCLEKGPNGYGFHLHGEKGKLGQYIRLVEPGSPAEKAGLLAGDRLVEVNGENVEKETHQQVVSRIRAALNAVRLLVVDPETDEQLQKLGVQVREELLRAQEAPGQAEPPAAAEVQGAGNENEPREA

NHERF1 PDZ2 D183E = biological target: T2, NHERF1 PDZ2 D183E (Homo sapiens, UniProt O14745, D183E); experiment: FP saturation binding, PDZ2 D183E; details: Asp183Glu PDZ2
T2 construct: pET16-N1P2 encoding PDZ2 (133–300) of NHERF1; inferred from pET16 vector and Ni-NTA purification; made in house; host or cells: E. coli BL21 (DE3)
T2 sequence (O14745 133-300 D183E): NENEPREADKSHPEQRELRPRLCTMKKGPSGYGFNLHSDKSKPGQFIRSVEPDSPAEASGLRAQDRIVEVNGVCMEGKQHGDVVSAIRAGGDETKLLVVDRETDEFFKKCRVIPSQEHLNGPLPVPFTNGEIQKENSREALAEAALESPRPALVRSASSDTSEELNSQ

NHERF1 PDZ2 N167H/D183E = biological target: T3, NHERF1 PDZ2 N167H/D183E (Homo sapiens, UniProt O14745, D183E/N167H); experiment: FP saturation binding, PDZ2 N167H/D183E; details: Asn167His/Asp183Glu PDZ2
T3 construct: pET16-N1P2 encoding PDZ2 (133–300) of NHERF1; inferred from pET16 vector and Ni-NTA purification; made in house; host or cells: E. coli BL21 (DE3)
T3 sequence (O14745 133-300 N167H/D183E): T2 sequence (O14745 133-300 D183E) with N35H

NHERF1 PDZ1 (1–120) = biological target: T4, NHERF1 PDZ1 (1–120) (Homo sapiens, UniProt O14745); experiment: ITC, PDZ1 (1–120); format: binding; details: 25°C
T4 construct: PDZ1 (1–120)
T4 sequence (O14745 1-120): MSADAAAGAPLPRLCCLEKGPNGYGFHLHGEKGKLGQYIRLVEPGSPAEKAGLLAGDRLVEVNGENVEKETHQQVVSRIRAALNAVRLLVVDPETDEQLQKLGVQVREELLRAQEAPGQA
Procedure: (§1) ITC measurements were performed with a MicroCalTM Auto-iTC200 system (GE Healthcare) at 25°C. Before measurement, samples were dialyzed overnight at 4°C in a buffer containing 10 mM Hepes (pH 7.5), 10 mM NaCl, 0.5 mM EDTA, and 0.5 mM ββ-mercaptoethanol. For determining NPT2A binding to PDZ constructs, the reaction cells were filled with 460 μl of 25 μM of the indicated PDZ protein. The ligand NPT2A (200–250 μM), was titrated into the cell in 19 injections of 2 μl each, with 150 s intervals between each injection. To remove the contribution of NPT2A dilution heat, a control experiment has been performed by titrating NPT2A into the buffer, which was then subtracted from the actual experimental data.
(§2) The ITC data were analyzed using Microcal Origin 7.0 and the manufacturer's provided VPViewer module to yield the association constant (Ka), stoichiometry (n), and the observed enthalpy change (ΔH°) for the binding reactions. Analysis of ITC data directly yielded ΔH° and Ka. The Gibbs energy calculated using the equation: ΔG°=−RTlnKa (3)
(§3) The entropy change was then obtained using the standard thermodynamic expression.

NHERF1 PDZ1 H27N (1–120) = biological target: T5, NHERF1 PDZ1 H27N (1–120) (Homo sapiens, UniProt O14745, H27N); experiment: ITC, PDZ1 H27N (1–120); format: binding
T5 construct: PDZ1 H27N (1–120)
T5 sequence (O14745 1-120 H27N): T4 sequence (O14745 1-120) with H27N
Procedure: as §1, §2, §3

NHERF1 PDZ1 E43D (1–120) = biological target: T6, NHERF1 PDZ1 E43D (1–120) (Homo sapiens, UniProt O14745, E43D); experiment: ITC, PDZ1 E43D (1–120); format: binding
T6 construct: PDZ1 E43D (1–120)
T6 sequence (O14745 1-120 E43D): T4 sequence (O14745 1-120) with E43D
Procedure: as §1, §2, §3

[1] = biological target: T7, NHERF1 PDZ1 H27N/E43D (1–120) (Homo sapiens, UniProt O14745, E43D/H27N); experiment: ITC, PDZ1 H27N/E43D (1–120); format: binding
T7 construct: PDZ1 H27N/E43D (1–120)
T7 sequence (O14745 1-120 H27N/E43D): T4 sequence (O14745 1-120) with H27N, E43D
Procedure: as §1, §2, §3

NHERF1 PDZ1 and PDZ2 = details: PDZ1 versus PDZ2; ref [10],[14]–[16]; cited from earlier work
Excerpt: Na^+/H^+ Exchanger Regulatory Factor-1 (NHERF1), also known as the 50-kDa ezrin-binding protein EBP50, is a multi-domain scaffolding protein that coordinates the assembly and trafficking of transmembrane receptors and ion channels. […] PDZ domains of NHERF1 recognize the X-S/T-X-ΦCOO ^- sequence of target partners (class I PDZ-binding motifs), where X is promiscuous and Φ is a hydrophobic residue. By conve ...

CC(C)C[C@H](NC(=O)[C@H](CCCNC(=N)N)NC(=O)[C@@H](NC(=O)[C@H](C)NC(=O)[C@H](CC(N)=O)NC(=O)[C@H](Cc1c[nH]cn1)NC(=O)[C@H](Cc1c[nH]cn1)NC(=O)[C@H](C)NC(=O)[C@@H]1CCCN1C(=O)[C@H](CC(C)C)NC(=O)[C@H](C)NC(=O)[C@H](CC(C)C)NC(=O)[C@H](CCCNC(=N)N)NC(=O)[C@@H]1CCCN1C(=O)[C@H](CO)NC(=O)[C@@H]1CCCN1C(=O)[C@@H](NC(=O)[C@H](C)NC(=O)[C@@H]1CCCN1C(=O)[C@@H]1CCCN1C(=O)[C@H](CC(C)C)NC(=O)[C@H](CCC(=O)O)NC(=O)c1ccc(-c2c3ccc(=[N+](C)C)cc-3oc3cc(N(C)C)ccc23)c(C(=O)[O-])c1)[C@@H](C)O)[C@@H](C)O)C(=O)O [NPT2A] (X1-ELPPATPSPRLALPAHHNATRL-OH)
binding affinity at acidic pH (NHERF1 PDZ1 (1–140)): significantly reduced compared to pH 7.4 | binding affinity (NHERF1 PDZ2 D183E): micromolar affinity | binding affinity (NHERF1 PDZ2 N167H/D183E): further enhancement of the binding affinity; also recorded: micromolar affinity | N (stoichiometry) (NHERF1 PDZ1 (1–120); pH 7.5): 0.92 | ΔH^o (NHERF1 PDZ1 (1–120); pH 7.5): -8.2 ± 0.8 kcal/mol | ΔG^o (NHERF1 PDZ1 (1–120); pH 7.5, from Eq 3): -7.6 ± 0.8 kcal/mol | ΔS^o (NHERF1 PDZ1 (1–120); pH 7.5, from Eq 4): -2.1±0.2 cal/mol/K | effect of His27Asn mutation on interaction (NHERF1 PDZ1 H27N (1–120); FP and ITC): decrease the interaction with NPT2A | N (stoichiometry) (NHERF1 PDZ1 H27N (1–120); ITC, 25°C, pH 7.5): 0.61 | ΔH^o (NHERF1 PDZ1 H27N (1–120); ITC, 25°C, pH 7.5): -7.5 ± 0.7 kcal/mol | ΔG^o (NHERF1 PDZ1 H27N (1–120); ITC, 25°C, pH 7.5, from Eq 3): -7.2 ± 0.7 kcal/mol | ΔS^o (NHERF1 PDZ1 H27N (1–120); ITC, 25°C, pH 7.5, from Eq 4): -0.86±0.08 cal/mol/K | ∆∆G^o (NHERF1 PDZ1 H27N (1–120); ∆G^o H27N - ∆G^o WT, ITC): about 0.4 kcal/mol | ∆∆H^o (NHERF1 PDZ1 H27N (1–120); ∆H^o H27N - ∆H^o WT, ITC): 0.7 kcal/mol | ∆∆S^o (NHERF1 PDZ1 H27N (1–120); ∆S^o H27N - ∆S^o WT, ITC): 1.3 cal mol^-1 K^-1 | effect of Glu43Asp mutation on interaction (NHERF1 PDZ1 E43D (1–120); FP and ITC): decrease the interaction with NPT2A | ∆∆H^o (NHERF1 PDZ1 E43D (1–120); Glu43Asp PDZ1 minus WT, ITC): 5.2 kcal/mol | ∆∆S^o (NHERF1 PDZ1 E43D (1–120); Glu43Asp PDZ1 minus WT, ITC): 14.8 cal mol^-1 K^-1 | N (stoichiometry) (NHERF1 PDZ1 E43D (1–120); ITC, 25°C, pH 7.5): 0.60 | ΔH^o (NHERF1 PDZ1 E43D (1–120); ITC, 25°C, pH 7.5): -3.0 ± 0.3 kcal/mol | ΔG^o (NHERF1 PDZ1 E43D (1–120); ITC, 25°C, pH 7.5, from Eq 3): -6.8 ± 0.7 kcal/mol | ΔS^o (NHERF1 PDZ1 E43D (1–120); ITC, 25°C, pH 7.5, from Eq 4): 12.7±1.0 cal/mol/K | ∆∆G^o (NHERF1 PDZ1 E43D (1–120); ∆G^o E43D - ∆G^o WT, ITC): 0.8 kcal/mol | N (stoichiometry) ([1]; 25°C, pH 7.5): 0.60 | ΔH^o ([1]; 25°C, pH 7.5): -5.8 ± 0.6 kcal/mol | ΔG^o ([1]; 25°C, pH 7.5, from Eq 3): -6.5 ± 0.6 kcal/mol | ΔS^o ([1]; 25°C, pH 7.5, from Eq 4): 2.3±0.3 cal/mol/K | ∆∆G^o ([1]; His27 by Asn and Glu43 by Asp, versus WT): 1.1 kcal/mol | binding selectivity (NHERF1 PDZ1 and PDZ2): binds only PDZ1
